Reference: patent US20240150423A1, “GLP-1 ANALOGUE-MODIFIED DIMERS WITH DIFFERENT CONFIGURATIONS, PREPARATION METHOD THEREOF, AND APPLICATION THEREOF IN TREATMENT OF TYPE II DIABETES” (Nanjing Finepeptide Biopharmaceutical Co.,Ltd, priority 2019, published 2024)
Non-standard residues stand in square brackets, D forms with d. No end group written: not given here. βAib = beta-Aib residue; βAla = NCCC(=O)O

System: Normal Kunming (KM) mice
Experiment: multiple OGTT (mOGTT): hypoglycemic duration after a single administration
Format: in vivo
Details: monomeric peptides, single injection at the same dose (1.126 nmol), subcutaneous
Summary of the method: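 Normal Kunming mice given a single dose, then oral glucose challenges; tail-blood glucose read by meter at 0, 10, 20, 40, 60 and 120 min. Duration scored as hypoglycemic period until group mean glucose exceeded the NaCl control twice.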

Substance | Hypoglycemic [days]
His-aAib-Glu-Gly-Thr-Phe-Thr-Ser-Asp-Val-Ser-Cys-Tyr-Leu-Glu-Gly-Gln-Ala-Ala-Lys[N-ϵ-(N-α-oleoyl)]-Glu-Phe-Ile-Ala-Trp-Leu-Val-Arg-Gly-Arg-Gly-NH2 (HXEGTFTSDVSCYLEGQAAXEFIAWLVRGRG; not fully specified; Aib; oleoyl on Lys side chain; C-terminal amide; Sequence is synthesized; (2)..(2) Xaa is aAib; (20)..(20) Xaa is 26Lys[N-e-(N-a-oleoyl-L-g-glutamyl)]; (31)..(31) N-terminal) [G4 series 36] | 8
His-aAib-Glu-Gly-Thr-Phe-Thr-Ser-Asp-Val-Ser-Cys-Tyr-Leu-Glu-Gly-Gln-Ala-Ala-Lys[N-ϵ-(N-α-oleoyl-L-γ-glutamyl)]-Glu-Phe-Ile-Ala-Trp-Leu-Val-Arg-Gly-Arg-Gly-OH (HXEGTFTSDVSCYLEGQAAXEFIAWLVRGRG; Aib; oleoyl-gamma-Glu on Lys; C-terminal acid; Sequence is synthesized; (2)..(2) Xaa is aAib; (20)..(20) Xaa is LyO; (31)..(31) C-terminal) [G6 series 46] | 5
His-βAib-Glu-Gly-Thr-Phe-Thr-Cys-Asp-Val-Ser-Ser-Tyr-Leu-Glu-Gly-Gln-Ala-Ala-Lys-Glu-Phe-Ile-Ala-Trp-Leu-Val-Arg-βAib-Arg-NH2 (H[βAib]EGTFTCDVSSYLEGQAAKEFIAWLVR[βAib]R-NH2; also: disulfide-linked homodimer via Cys) [G8 series 67] | 2
His-βAib-Glu-Gly-Thr-Phe-Thr-Cys-Asp-Val-Ser-Ser-Tyr-Leu-Glu-Gly-Gln-Ala-Ala-Lys[N-ϵ-(N-α-oleoyl-L-γ-glutamyl)]-Glu-Phe-Ile-Ala-Trp-Leu-Val-Arg-Gly-Arg-Gly-NH2 (HXEGTFTCDVSSYLEGQAAXEFIAWLVRGRG; beta-Aib; oleoyl-gamma-Glu on Lys; C-terminal amide; Sequence is synthesized; (2)..(2) Xaa is bAib; (20)..(20) Xaa is 26Lys[N-e-(N-a-oleoyl-L-g-glutamyl)]; (31)..(31) N-terminal) [G8 series 66] | 3
His-βAib-Glu-Gly-Thr-Phe-Thr-Ser-Asp-Val-Cys-Ser-Tyr-Leu-Glu-Gly-Gln-Ala-Ala-Lys-Glu-Phe-Ile-Ala-Trp-Leu-Val-Arg-βAib-Arg-NH2 (H[βAib]EGTFTSDVCSYLEGQAAKEFIAWLVR[βAib]R-NH2; also: disulfide-linked homodimer via Cys) [G2 series 16] | 3
His-βAib-Glu-Gly-Thr-Phe-Thr-Ser-Asp-Val-Cys-Ser-Tyr-Leu-Glu-Gly-Gln-Ala-Ala-Lys-Glu-Phe-Ile-Ala-Trp-Leu-Val-Lys-βAib-Arg-NH2 (H[βAib]EGTFTSDVCSYLEGQAAKEFIAWLVK[βAib]R-NH2; also: disulfide-linked homodimer via Cys) [G2 series 17] | 3
His-βAib-Glu-Gly-Thr-Phe-Thr-Ser-Asp-Val-Cys-Ser-Tyr-Leu-Glu-Gly-Gln-Ala-Ala-Lys[N-ϵ-(N-α-oleoyl)]-Glu-Phe-Ile-Ala-Trp-Leu-Val-Arg-Gly-Arg-Gly-NH2 (HXEGTFTSDVCSYLEGQAAXEFIAWLVRGRG; βAib; oleoyl on Lys; C-terminal amide; Sequence is synthesized; (2)..(2) Xaa is bAib; (20)..(20) Xaa is 26Lys[N-e-(N-a-oleoyl-L-g-glutamyl)]; (31)..(31) N-terminal) [G4 series 30] | 6
His-βAib-Glu-Gly-Thr-Phe-Thr-Ser-Asp-Val-Cys-Ser-Tyr-Leu-Glu-Gly-Gln-Ala-Ala-Lys[N-ϵ-(N-α-oleoyl-L-γ-glutamyl)]-Glu-Phe-Ile-Ala-Trp-Leu-Val-Arg-Gly-Arg-Gly-NH2 (HXEGTFTSDVCSYLEGQAAXEFIAWLVRGRG; βAib; oleoyl-γ-glutamyl on Lys; C-terminal amide; Sequence is synthesized; (2)..(2) Xaa is bAib; (20)..(20) Xaa is 26Lys[N-e-(N-a-oleoyl-L-g-glutamyl)]; (31)..(31) N-terminal) [G2 series 15] | 5
His-βAib-Glu-Gly-Thr-Phe-Thr-Ser-Asp-Val-Ser-Cys-Tyr-Leu-Glu-Gly-Gln-Ala-Ala-Lys-Glu-Phe-Ile-Ala-Trp-Leu-Val-Arg-βAib-Arg-NH2 (H[βAib]EGTFTSDVSCYLEGQAAKEFIAWLVR[βAib]R-NH2; also: disulfide-linked homodimer via Cys12) [G7 series 54] | 2
His-βAib-Glu-Gly-Thr-Phe-Thr-Ser-Asp-Val-Ser-Cys-Tyr-Leu-Glu-Gly-Gln-Ala-Ala-Lys[N-ϵ-(N-α-Palmitoyl-L-γ-glutamyl)]-Glu-Phe-Ile-Ala-Trp-Leu-Val-Lys[N-ϵ-(N-α-Palmitoyl-L-γ-glutamyl)]-Gly-Arg-Gly-NH2 (HXEGTFTSDVSCYLEGQAAXEFIAWLVXGRG; not fully specified; beta-Aib; two palmitoyl-gamma-Glu on Lys; C-terminal amide; Sequence is synthesized; (2)..(2) Xaa is bAib; (20)..(20) Xaa is 26Lys[N-e-(N-a-palmitoyl-L-g-glutamyl)]; (28)..(28) Xaa is 26Lys[N-e-(N-a-palmitoyl-L-g-glutamyl)]; (31)..(31) N-terminal) [G5 series 43] | 3
His-βAib-Glu-Gly-Thr-Phe-Thr-Ser-Asp-Val-Ser-Cys-Tyr-Leu-Glu-Gly-Gln-Ala-Ala-Lys[N-ϵ-(N-α-oleoyl)]-Glu-Phe-Ile-Ala-Trp-Leu-Val-Arg-Gly-Arg-Gly-NH2 (HXEGTFTSDVSCYLEGQAAXEFIAWLVRGRG; not fully specified; beta-Aib; oleoyl on Lys side chain; C-terminal amide; Sequence is synthesized; (2)..(2) Xaa is bAib; (20)..(20) Xaa is 26Lys[N-e-(N-a-oleoyl-L-g-glutamyl)]; (31)..(31) N-terminal) [G4 series 38] | 6
His-βAib-Glu-Gly-Thr-Phe-Thr-Ser-Asp-Val-Ser-Cys-Tyr-Leu-Glu-Gly-Gln-Ala-Ala-Lys[N-ϵ-(N-α-oleoyl-L-γ-glutamyl)]-Glu-Phe-Ile-Ala-Trp-Leu-Val-Arg-Gly-Arg-Gly-NH2 (HXEGTFTSDVSCYLEGQAAXEFIAWLVRGRG; not fully specified; beta-Aib; oleoyl-gamma-Glu on Lys; C-terminal amide; Sequence is synthesized; (2)..(2) Xaa is bAib; (20)..(20) Xaa is 26Lys[N-e-(N-a-oleoyl-L-g-glutamyl)]; (31)..(31) N-terminal) [G6 series 49] | 5
His-βAla-Glu-Gly-Thr-Phe-Thr-Cys-Asp-Val-Ser-Ser-Tyr-Leu-Glu-Gly-Gln-Ala-Ala-Lys-Glu-Phe-Ile-Ala-Trp-Leu-Val-Arg-βAla-Arg-NH2 (H[βAla]EGTFTCDVSSYLEGQAAKEFIAWLVR[βAla]R-NH2; not fully specified; printed as His-βAla-Glu-Gly-Thr-Phe-Thr-Cys-Asp-Val-Ser-Ser-Tyr-Leu-Glu-Gly-Gln-Ala-Ala-Lys-Glu-Phe-Ile-Ala-Trp-Leu-Val-Arg-βAla-Arg-NH2) [G8 series 69] | 2
